{"source": "patent US11964973B2", "about": "(priority 2019, dated 2024)", "key": {"[1]": {"target": "Human DGKα(9-727) (Homo sapiens (Human), UniProt P23743)", "sequence (P23743 whole entry, looked up)": "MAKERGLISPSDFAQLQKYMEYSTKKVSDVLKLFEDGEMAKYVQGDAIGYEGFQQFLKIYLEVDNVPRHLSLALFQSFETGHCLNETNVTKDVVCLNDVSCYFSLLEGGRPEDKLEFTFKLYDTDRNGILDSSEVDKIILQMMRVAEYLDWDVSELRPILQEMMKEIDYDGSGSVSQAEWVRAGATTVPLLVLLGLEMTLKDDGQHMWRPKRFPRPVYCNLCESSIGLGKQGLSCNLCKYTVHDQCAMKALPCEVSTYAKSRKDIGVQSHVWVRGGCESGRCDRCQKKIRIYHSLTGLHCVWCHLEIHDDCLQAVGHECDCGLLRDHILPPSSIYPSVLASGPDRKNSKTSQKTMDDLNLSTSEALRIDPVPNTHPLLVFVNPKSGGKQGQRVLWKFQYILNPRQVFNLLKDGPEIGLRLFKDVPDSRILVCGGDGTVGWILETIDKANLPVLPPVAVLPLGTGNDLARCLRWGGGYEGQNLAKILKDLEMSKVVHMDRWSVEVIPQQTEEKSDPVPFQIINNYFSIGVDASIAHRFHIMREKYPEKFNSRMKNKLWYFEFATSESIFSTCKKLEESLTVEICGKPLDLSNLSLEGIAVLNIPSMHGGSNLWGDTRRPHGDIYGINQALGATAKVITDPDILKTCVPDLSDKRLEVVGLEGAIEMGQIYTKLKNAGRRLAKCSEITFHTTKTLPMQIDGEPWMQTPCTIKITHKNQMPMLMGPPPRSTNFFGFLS", "assay": "biochemical", "conditions": "liposome (LIPGLO) assay; Table A; read-out: DGKα LIPGLO IC50"}, "[2]": {"target": "full length human DGKζ (Homo sapiens (Human), UniProt Q13574)", "sequence (Q13574 whole entry, looked up)": "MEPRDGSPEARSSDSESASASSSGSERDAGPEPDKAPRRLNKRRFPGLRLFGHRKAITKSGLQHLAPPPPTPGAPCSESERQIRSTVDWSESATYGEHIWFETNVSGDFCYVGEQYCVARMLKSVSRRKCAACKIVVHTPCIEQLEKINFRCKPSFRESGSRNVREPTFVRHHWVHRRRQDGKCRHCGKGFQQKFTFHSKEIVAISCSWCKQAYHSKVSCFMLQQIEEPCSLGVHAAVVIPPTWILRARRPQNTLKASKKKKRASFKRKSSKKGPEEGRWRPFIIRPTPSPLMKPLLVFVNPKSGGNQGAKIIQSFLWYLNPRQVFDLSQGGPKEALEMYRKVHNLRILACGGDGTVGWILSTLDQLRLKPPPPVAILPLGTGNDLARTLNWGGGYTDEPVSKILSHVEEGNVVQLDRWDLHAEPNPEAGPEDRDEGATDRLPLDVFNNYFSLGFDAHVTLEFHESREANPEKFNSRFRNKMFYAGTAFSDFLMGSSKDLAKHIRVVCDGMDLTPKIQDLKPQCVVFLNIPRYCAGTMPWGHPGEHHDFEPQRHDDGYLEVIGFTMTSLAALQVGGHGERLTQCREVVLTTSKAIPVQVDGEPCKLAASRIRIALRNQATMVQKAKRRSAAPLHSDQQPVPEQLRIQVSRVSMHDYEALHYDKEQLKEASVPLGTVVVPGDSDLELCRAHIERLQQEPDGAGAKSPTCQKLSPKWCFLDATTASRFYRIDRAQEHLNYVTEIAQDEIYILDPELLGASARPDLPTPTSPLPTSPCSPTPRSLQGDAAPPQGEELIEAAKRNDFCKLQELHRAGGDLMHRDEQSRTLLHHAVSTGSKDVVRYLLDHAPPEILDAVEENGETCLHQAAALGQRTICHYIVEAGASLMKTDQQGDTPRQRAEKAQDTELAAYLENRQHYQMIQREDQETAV", "assay": "In vitro DGK inhibition assay, Method B (DGKζ LIPGLO, extruded liposomes)", "type": "biochemical"}, "[3]": {"test_system": "human venous whole blood, CD8 positive population (pERK)", "assay": "DGK human whole blood pERK assay", "type": "cell-based", "conditions": "top concentration 20 μM", "in_short": "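Read-out is the pERK-positive fraction of CD8+ cells measured by flow cytometry. Donor venous blood (heparin) saw compound for one hour at 37° C before a 15-minute anti-CD3 challenge (1 μg/mL final) with cross-linking anti-mouse IgG.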"}, "[4]": {"conditions": "liposome (LIPGLO) assay, read-out: DGKζ LIPGLO IC50"}, "[5]": {"conditions": "human whole blood, CD8 positive population, anti-CD3 stimulation, read-out: DGK HWB (human whole blood pERK)"}, "[6]": {"conditions": "read-out: DGK HWB (human whole blood pERK), human whole blood, CD8 positive population, anti-CD3 stimulation"}, "[7]": {"conditions": "Homo sapiens, CD8 positive, read-out: DGK HWB (human whole blood pERK), human whole blood, CD8 positive population, anti-CD3 stimulation"}}, "note": "pEC50, pIC50: −log10 of the molar value. Read-outs that look alike come from different tables or passages of the source.", "data": [{"smiles": "CCO[C@H]1CN(c2cc(=O)n(C)c3ccc(C#N)nc23)CC[C@@H]1Oc1ncc(OC(C)C)cn1", "note": "[Example 380, 8-((3S,4S)-3-ethoxy-4-((5-isopropoxypyrimidin-2-yl)oxy)piperidin-1-yl)-5-methyl-6-oxo-5,6-dihydro-1,5-naphthyridine-2-carbonitrile]", "values": [{"measurement": "pIC50", "setting": "[1]", "value": 5.89}, {"measurement": "pIC50", "setting": "[2]; [4]", "value": 4.85}, {"measurement": "pEC50", "setting": "[3]; [5]", "value": 4.70}]}, {"smiles": "CCO[C@@H]1CN(c2nc(=O)n(C)c3ccc(C#N)nc23)CC[C@H]1Oc1ccc(OC(C)C)cn1", "note": "(relative stereo) [Example 400, trans-4-(3-Ethoxy-4-((5-isopropoxypyridin-2-yl)oxy)piperidin-1-yl)-1-methyl-2-oxo-1,2-dihydropyrido[3,2-d]pyrimidine-6-carbonitrile]", "values": [{"measurement": "pIC50", "setting": "[1]", "value": 5.21}, {"measurement": "pIC50", "setting": "[2]; [4]", "value": 6.15}, {"measurement": "pEC50", "setting": "[3]; [5]", "value": 5.04}]}, {"smiles": "Cn1c(=O)cc(N2CC[C@@H](Oc3cccc(C(F)(F)F)c3)[C@H](OCC(F)(F)F)C2)c2nc(C#N)ccc21", "note": "[Example 394, 5-methyl-6-oxo-8-((3R,4R)-3-(2,2,2-trifluoroethoxy)-4-(3-(trifluoromethyl)phenoxy)piperidin-1-yl)-5,6-dihydro-1,5-naphthyridine-2-carbonitrile]", "values": [{"measurement": "pIC50", "setting": "[2]; [4]", "value": 4.29}, {"measurement": "pEC50", "setting": "[3]; [6]", "value": 5.21}]}, {"smiles": "C[C@@H]1CN(c2cc(=O)n(C)c3ccc(C#N)nc23)[C@@H](C)CC1N(C)C(=O)c1ccc(F)cc1", "note": "(single isomer, unassigned) [Example 283B]", "values": [{"measurement": "pIC50", "setting": "[1]", "value": 4.38}, {"measurement": "pIC50", "setting": "[2]", "value": 4.38}]}, {"smiles": "Cn1c(=O)cc(N2CC[C@@H](Oc3cccc(C(F)(F)F)c3)[C@H](OCC(F)(F)F)C2)c2nc(C#N)ccc21", "note": "[Example 393, 5-methyl-6-oxo-8-((3R,4R)-3-(2,2,2-trifluoroethoxy)-4-(3-(trifluoromethyl)phenoxy)piperidin-1-yl)-5,6-dihydro-1,5-naphthyridine-2-carbonitrile]", "values": [{"measurement": "pIC50", "setting": "[1]", "value": 5.96}, {"measurement": "pIC50", "setting": "[2]; [4]", "value": 6.42}, {"measurement": "pEC50", "setting": "[3]; [6]", "value": 6.17}]}, {"smiles": "Cn1c(=O)cc(N2CC[C@@H](Oc3cccc(C(F)(F)F)c3)[C@H](OCCN3CCOCC3)C2)c2nc(C#N)ccc21", "note": "[Example 392, 5-methyl-8-((3R,4R)-3-(2-morpholinoethoxy)-4-(3-(trifluoromethyl)phenoxy)piperidin-1-yl)-6-oxo-5,6-dihydro-1,5-naphthyridine-2-carbonitrile]", "values": [{"measurement": "pIC50", "setting": "[1]", "value": 4.38}, {"measurement": "pIC50", "setting": "[2]; [4]", "value": 4.62}, {"measurement": "pEC50", "setting": "[3]; [6]", "value": 4.89}]}, {"smiles": "COCCO[C@@H]1CN(c2cc(=O)n(C)c3ccc(C#N)nc23)CC[C@H]1Oc1cccc(C(F)(F)F)c1", "note": "[Example 390, 8-((3R,4R)-3-(2-methoxyethoxy)-4-(3-(trifluoromethyl)phenoxy)piperidin-1-yl)-5-methyl-6-oxo-5,6-dihydro-1,5-naphthyridine-2-carbonitrile]", "values": [{"measurement": "pIC50", "setting": "[2]; [4]", "value": 5.72}, {"measurement": "pEC50", "setting": "[3]; [6]", "value": 4.70}]}, {"smiles": "Cn1c(=O)cc(N2CC[C@@H](Oc3cccc(C(F)(F)F)c3)[C@H](OCC3CC3)C2)c2nc(C#N)ccc21", "note": "[Example 387, 8-((3R,4R)-3-(cyclopropylmethoxy)-4-(3-(trifluoromethyl)phenoxy)piperidin-1-yl)-5-methyl-6-oxo-5,6-dihydro-1,5-naphthyridine-2-carbonitrile]", "values": [{"measurement": "pIC50", "setting": "[1]", "value": 5.68}, {"measurement": "pIC50", "setting": "[2]; [4]", "value": 7.01}, {"measurement": "pEC50", "setting": "[3]; [5]", "value": 6.19}]}, {"smiles": "COCCO[C@@H]1CN(c2cc(=O)n(C)c3ccc(C#N)nc23)CC[C@H]1Oc1cccc(C(F)(F)F)c1", "note": "[Example 389, 8-((3R,4R)-3-(2-methoxyethoxy)-4-(3-(trifluoromethyl)phenoxy)piperidin-1-yl)-5-methyl-6-oxo-5,6-dihydro-1,5-naphthyridine-2-carbonitrile]", "values": [{"measurement": "pIC50", "setting": "[1]", "value": 5.60}, {"measurement": "pIC50", "setting": "[2]; [4]", "value": 6.57}, {"measurement": "pEC50", "setting": "[3]; [6]", "value": 5.52}]}, {"smiles": "CCO[C@@H]1CN(c2nc(=O)n(C)c3ccc(C#N)nc23)CC[C@H]1Oc1ccc(OC(C)C)cn1", "note": "(relative stereo) [Example 401, trans-4-(3-Ethoxy-4-((5-isopropoxypyridin-2-yl)oxy)piperidin-1-yl)-1-methyl-2-oxo-1,2-dihydropyrido[3,2-d]pyrimidine-6-carbonitrile]", "values": [{"measurement": "pIC50", "setting": "[1]", "value": 6.08}, {"measurement": "pIC50", "setting": "[2]; [4]", "value": 6.41}, {"measurement": "pEC50", "setting": "[3]; [5]", "value": 5.64}]}, {"smiles": "CCO[C@H]1CN(c2cc(=O)n(C)c3ccc(C#N)nc23)CC[C@@H]1Oc1cnc(OC(C)C)cn1", "note": "[Example 377, 8-((3S,4S)-3-ethoxy-4-((5-isopropoxypyrazin-2-yl)oxy)piperidin-1-yl)-5-methyl-6-oxo-5,6-dihydro-1,5-naphthyridine-2-carbonitrile]", "values": [{"measurement": "pIC50", "setting": "[1]", "value": 6.89}, {"measurement": "pIC50", "setting": "[2]; [4]", "value": 7.12}, {"measurement": "pEC50", "setting": "[3]; [5]", "value": 6.35}]}, {"smiles": "CCO[C@H]1CN(c2nc(=O)n(C)c3ccc(C#N)nc23)CC[C@@H]1Oc1ccccc1", "note": "(relative stereo) [Example 403, trans-4-(3-Ethoxy-4-phenoxypiperidin-1-yl)-1-methyl-2-oxo-1,2-dihydropyrido[3,2-d] pyrimidine-6-carbonitrile]", "values": [{"measurement": "pIC50", "setting": "[1]", "value": 4.72}, {"measurement": "pIC50", "setting": "[2]; [4]", "value": 5.28}, {"measurement": "pEC50", "setting": "[3]; [6]", "value": 4.96}]}, {"smiles": "CCO[C@H]1CN(c2nc(=O)n(C)c3ccc(C#N)nc23)CC[C@@H]1Oc1ccc(C(F)(F)F)cc1", "note": "[Example 404, 4-((3S,4S)-3-ethoxy-4-(4-(trifluoromethyl)phenoxy)piperidin-1-yl)-1-methyl-2-oxo-1,2-dihydropyrido[3,2-d]pyrimidine-6-carbonitrile]", "values": [{"measurement": "pIC50", "setting": "[1]", "value": 5.25}, {"measurement": "pIC50", "setting": "[2]; [4]", "value": 5.92}, {"measurement": "pEC50", "setting": "[3]; [7]", "value": 5.89}]}, {"smiles": "CCO[C@H]1CN(c2cc(=O)n(C)c3ccc(C#N)nc23)CC[C@@H]1Oc1ncc(OC(C)C)cn1", "note": "[Example 379, 8-((3S,4S)-3-ethoxy-4-((5-isopropoxypyrimidin-2-yl)oxy)piperidin-1-yl)-5-methyl-6-oxo-5,6-dihydro-1,5-naphthyridine-2-carbonitrile]", "values": [{"measurement": "pIC50", "setting": "[1]", "value": 6.24}, {"measurement": "pIC50", "setting": "[2]; [4]", "value": 5.51}, {"measurement": "pEC50", "setting": "[3]; [5]", "value": 5.15}]}, {"smiles": "CCO[C@H]1CN(c2cc(=O)n(C)c3ccc(C#N)nc23)CC[C@@H]1OCc1cccc(C(F)(F)F)c1", "note": "(single isomer, unassigned) [Example 382]", "values": [{"measurement": "pIC50", "setting": "[1]", "value": 4.77}, {"measurement": "pIC50", "setting": "[2]; [4]", "value": 3.89}, {"measurement": "pEC50", "setting": "[3]; Homo sapiens, CD8 positive, human whole blood, CD8 positive population, anti-CD3 stimulation, read-out: DGK HWB (human whole blood pERK)", "value": 4.70}]}, {"smiles": "CCO[C@H]1CN(c2nc(=O)n(C)c3ccc(C#N)nc23)CC[C@@H]1Oc1ccccc1", "note": "(relative stereo) [Example 402, trans-4-(3-Ethoxy-4-phenoxypiperidin-1-yl)-1-methyl-2-oxo-1,2-dihydropyrido[3,2-d] pyrimidine-6-carbonitrile]", "values": [{"measurement": "pIC50", "setting": "[1]", "value": 5.68}, {"measurement": "pIC50", "setting": "[2]; [4]", "value": 6.05}, {"measurement": "pEC50", "setting": "[3]; [6]", "value": 5.55}]}, {"smiles": "CN(C)CCO[C@@H]1CN(c2cc(=O)n(C)c3ccc(C#N)nc23)CC[C@H]1Oc1cccc(C(F)(F)F)c1", "note": "[Example 385, 8-((3R,4R)-3-(2-(dimethylamino)ethoxy)-4-(3-(trifluoromethyl)phenoxy)piperidin-1-yl)-5-methyl-6-oxo-5,6-dihydro-1,5-naphthyridine-2-carbonitrile]", "values": [{"measurement": "pIC50", "setting": "[1]", "value": 4.00}, {"measurement": "pIC50", "setting": "[2]; [4]", "value": 3.89}]}, {"smiles": "C[C@@H]1CN(c2cc(=O)n(C)c3ccc(C#N)nc23)[C@@H](C)CC1N(C)C(=O)c1ccc(F)cc1", "note": "(single isomer, unassigned) [Example 283A]", "values": [{"measurement": "pIC50", "setting": "[1]", "value": 4.59}, {"measurement": "pIC50", "setting": "[2]; [4]", "value": 4.85}]}, {"smiles": "CCO[C@H]1CN(c2cc(=O)n(C)c3ccc(C#N)nc23)CC[C@@H]1Oc1ccc(OC(C)C)nn1", "note": "[Example 376, 8-((3S,4S)-3-ethoxy-4-((6-isopropoxypyridazin-3-yl)oxy)piperidin-1-yl)-5-methyl-6-oxo-5,6-dihydro-1,5-naphthyridine-2-carbonitrile]", "values": [{"measurement": "pIC50", "setting": "[2]; [4]", "value": 4.85}, {"measurement": "pEC50", "setting": "[3]; [7]", "value": 4.70}]}]}
